Assay results reported in ChEMBL document CHEMBL1201862, “PubChem BioAssay data set” (2004).
Calls of active or inactive are those of the source.

Tests used:
[1] = blockers of HIV-1 envelope-mediated cell-cell fusion – cherry-pick, dose response (AID 652057); format: functional, cell-based
[2] = biological target: Voltage-dependent T-type calcium channel subunit alpha-1H (Homo sapiens, UniProt O95180); format: functional;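 further: channel activity triggered by adding a high calcium stimulation buffer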
[3] = HIV-1 AD8 envelope cell-cell fusion blockers – cherry-pick, dose response (AID 652062); format: functional, cell-based;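 further: luciferase signal from cell-cell fusion driven by HIV-1 clade B AD8 Env; potency is for inhibitors of fusion seen as a drop in luminescence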
[4] = viability loss in CEM21 cells – cell-based, CellTiter-Glo luminescence, cherry-picked, cytotoxicity control for viral fusion inhibitor project, dose response (AID 652042); format: functional;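 further: potency for signal decrease meaning cytotoxicity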
HEK293 [5] = assay: cells; format: functional, cell-based; details: Homo sapiens
HEK293 [6] = assay: NOD2 signaling inhibitors in MDP-stimulated cells, cell-based, uHTS, luminescence (AID 2001); format: functional; details: Homo sapiens
HEK293 [7] = assay: inhibition of NOD1-driven NF-kB reporter – cell-based, luminescence, uHTS, primary screen (AID 1578); format: functional; details: Homo sapiens
HEK293 [8] = assay: cells; format: functional, cell-based; details: Homo sapiens; remark: listed apart in the source
[9] = biological target: T1, Ubiquitin-conjugating enzyme E2 N (Homo sapiens, UniProt P61088); format: functional;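 further: Dose-response confirmation in a TR-FRET assay detecting UBC13-driven polyubiquitin chain formation, inhibition measured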
T1 sequence (P61088 whole entry): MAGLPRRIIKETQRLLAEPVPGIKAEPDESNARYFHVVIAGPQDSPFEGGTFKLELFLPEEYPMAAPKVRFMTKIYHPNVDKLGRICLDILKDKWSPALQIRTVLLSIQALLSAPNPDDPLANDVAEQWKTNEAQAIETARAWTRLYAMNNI

[10] = biological target: T2, Replicative DNA helicase DnaB (Mycobacterium tuberculosis, UniProt P9WMR3); assay: DnaB intein splicing inhibitors, dose response, biochemical, cell-free fluorescence (AID 449749); format: functional
T2 sequence (P9WMR3 whole entry): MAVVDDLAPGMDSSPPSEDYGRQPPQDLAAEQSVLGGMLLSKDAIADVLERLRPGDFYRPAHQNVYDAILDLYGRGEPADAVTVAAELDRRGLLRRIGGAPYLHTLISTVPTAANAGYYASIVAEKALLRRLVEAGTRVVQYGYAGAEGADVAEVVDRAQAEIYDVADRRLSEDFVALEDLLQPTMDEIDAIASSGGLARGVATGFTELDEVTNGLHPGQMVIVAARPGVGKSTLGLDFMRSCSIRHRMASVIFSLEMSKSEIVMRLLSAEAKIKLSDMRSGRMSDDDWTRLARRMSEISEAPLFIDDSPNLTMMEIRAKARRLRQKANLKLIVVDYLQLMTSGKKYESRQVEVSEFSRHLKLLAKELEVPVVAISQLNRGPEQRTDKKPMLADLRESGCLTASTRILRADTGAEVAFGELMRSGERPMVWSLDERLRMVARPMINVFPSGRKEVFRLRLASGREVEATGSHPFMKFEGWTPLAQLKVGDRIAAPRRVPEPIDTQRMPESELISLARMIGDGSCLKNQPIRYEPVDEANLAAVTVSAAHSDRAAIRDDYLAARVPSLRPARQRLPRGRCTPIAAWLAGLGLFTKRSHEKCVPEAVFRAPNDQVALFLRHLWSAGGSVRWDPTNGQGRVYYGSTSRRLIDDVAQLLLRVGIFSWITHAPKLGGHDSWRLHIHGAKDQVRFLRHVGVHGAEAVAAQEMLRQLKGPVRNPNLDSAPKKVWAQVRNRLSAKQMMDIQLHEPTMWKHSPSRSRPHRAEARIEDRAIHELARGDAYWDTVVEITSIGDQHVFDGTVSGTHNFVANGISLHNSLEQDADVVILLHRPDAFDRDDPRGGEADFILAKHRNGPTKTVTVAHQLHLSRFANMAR

Protein RecA = biological target: T3, Protein RecA (Mycobacterium tuberculosis, UniProt P9WHJ3); assay: Fluorescence Cell-Free Homogeneous Dose Retest to Identify Inhibitors of RecA-Intein Splicing Activity. [Related pubchem assays (depositor defined):AID2097, AID2223, AID489010, AID492950]; format: functional
T3 sequence (P9WHJ3 whole entry): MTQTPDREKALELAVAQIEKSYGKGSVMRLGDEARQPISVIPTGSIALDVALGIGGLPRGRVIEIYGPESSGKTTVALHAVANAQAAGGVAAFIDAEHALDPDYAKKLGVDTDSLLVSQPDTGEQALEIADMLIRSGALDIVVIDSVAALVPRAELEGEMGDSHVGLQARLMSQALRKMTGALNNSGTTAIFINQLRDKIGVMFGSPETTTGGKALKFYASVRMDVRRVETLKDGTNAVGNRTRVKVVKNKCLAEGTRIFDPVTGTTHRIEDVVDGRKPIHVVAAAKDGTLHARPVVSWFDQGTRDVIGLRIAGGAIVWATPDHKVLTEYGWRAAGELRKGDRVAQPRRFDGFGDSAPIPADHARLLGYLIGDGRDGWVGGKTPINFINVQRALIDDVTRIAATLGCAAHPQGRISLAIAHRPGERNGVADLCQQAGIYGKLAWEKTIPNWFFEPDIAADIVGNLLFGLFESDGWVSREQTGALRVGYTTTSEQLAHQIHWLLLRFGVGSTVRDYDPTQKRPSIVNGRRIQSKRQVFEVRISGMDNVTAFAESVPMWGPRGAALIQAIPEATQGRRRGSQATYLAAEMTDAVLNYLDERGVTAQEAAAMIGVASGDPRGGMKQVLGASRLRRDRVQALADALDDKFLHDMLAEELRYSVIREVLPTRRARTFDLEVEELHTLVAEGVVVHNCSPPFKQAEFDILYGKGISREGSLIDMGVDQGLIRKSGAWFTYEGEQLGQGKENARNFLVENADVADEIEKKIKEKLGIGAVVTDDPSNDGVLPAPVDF

Aminopeptidase N = biological target: T4, Aminopeptidase N (Plasmodium falciparum FcB1/Columbia, UniProt O96935); assay: malaria alanyl aminopeptidase activity blockers – biochemical, fluorogenic H-Leu-NHMec substrate, 1536-well (AID 1445); set-up: species or system Plasmodium falciparum 3D7, 3D7
T4 sequence (O96935 whole entry): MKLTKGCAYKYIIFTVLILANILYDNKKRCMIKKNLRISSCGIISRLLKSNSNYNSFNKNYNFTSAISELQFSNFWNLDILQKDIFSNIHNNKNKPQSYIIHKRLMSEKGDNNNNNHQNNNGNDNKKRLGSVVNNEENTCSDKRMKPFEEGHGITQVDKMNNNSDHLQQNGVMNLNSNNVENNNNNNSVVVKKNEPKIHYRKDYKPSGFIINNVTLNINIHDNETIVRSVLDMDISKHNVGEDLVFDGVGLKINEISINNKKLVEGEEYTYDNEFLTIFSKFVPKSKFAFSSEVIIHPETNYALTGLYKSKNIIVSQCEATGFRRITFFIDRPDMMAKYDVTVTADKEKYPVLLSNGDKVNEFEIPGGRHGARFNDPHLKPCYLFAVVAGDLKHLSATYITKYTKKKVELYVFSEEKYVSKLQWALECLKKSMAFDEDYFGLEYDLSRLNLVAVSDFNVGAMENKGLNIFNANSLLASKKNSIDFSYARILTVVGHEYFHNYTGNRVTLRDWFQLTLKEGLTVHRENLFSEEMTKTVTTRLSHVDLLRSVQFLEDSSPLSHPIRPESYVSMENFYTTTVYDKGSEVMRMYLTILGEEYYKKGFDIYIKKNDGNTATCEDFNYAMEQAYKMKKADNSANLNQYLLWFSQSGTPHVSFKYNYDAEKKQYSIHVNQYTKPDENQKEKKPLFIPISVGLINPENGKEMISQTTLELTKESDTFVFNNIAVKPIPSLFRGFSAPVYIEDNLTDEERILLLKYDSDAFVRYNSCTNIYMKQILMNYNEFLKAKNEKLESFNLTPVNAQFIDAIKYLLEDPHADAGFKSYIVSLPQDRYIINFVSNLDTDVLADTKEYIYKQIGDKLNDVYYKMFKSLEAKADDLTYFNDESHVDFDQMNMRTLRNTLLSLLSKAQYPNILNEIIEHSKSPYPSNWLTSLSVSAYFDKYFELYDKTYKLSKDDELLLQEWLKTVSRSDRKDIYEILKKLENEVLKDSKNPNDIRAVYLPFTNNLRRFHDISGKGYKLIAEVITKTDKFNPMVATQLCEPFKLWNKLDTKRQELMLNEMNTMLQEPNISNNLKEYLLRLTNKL

[11] = biological target: T5, Alkaline phosphatase, tissue-nonspecific isozyme (Homo sapiens, UniProt P05186); assay: potency against alkaline phosphatase TNAP – biochemical, luminescent, dose response, SAR follow-up (AID 1056)
T5 sequence (P05186 whole entry): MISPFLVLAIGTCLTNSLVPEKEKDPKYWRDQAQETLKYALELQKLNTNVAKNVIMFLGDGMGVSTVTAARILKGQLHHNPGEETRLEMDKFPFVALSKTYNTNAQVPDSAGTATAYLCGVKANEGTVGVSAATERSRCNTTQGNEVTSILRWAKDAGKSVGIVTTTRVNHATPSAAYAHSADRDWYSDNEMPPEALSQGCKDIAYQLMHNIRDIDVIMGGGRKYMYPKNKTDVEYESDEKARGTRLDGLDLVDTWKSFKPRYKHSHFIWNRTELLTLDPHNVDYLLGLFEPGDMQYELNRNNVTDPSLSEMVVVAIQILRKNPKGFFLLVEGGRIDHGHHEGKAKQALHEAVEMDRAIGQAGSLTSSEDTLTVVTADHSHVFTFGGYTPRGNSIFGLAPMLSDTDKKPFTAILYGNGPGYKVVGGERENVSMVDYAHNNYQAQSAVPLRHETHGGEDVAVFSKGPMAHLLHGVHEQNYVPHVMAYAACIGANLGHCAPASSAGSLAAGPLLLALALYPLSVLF

[12] = biological target: Glyceraldehyde-3-phosphate dehydrogenase (Homo sapiens, UniProt P04406)
Cytochrome P450 3A4 = Cytochrome P450 3A4 (Homo sapiens, UniProt P08684); details: Potency;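 further: confirmatory qHTS run detecting inhibitors and substrates of CYP3A4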
[13] = HepG2 cell cytotoxicity, dose response, cytotoxicity control for non-replicating M. tuberculosis project (AID 489018); format: functional; details: Mycobacterium tuberculosis
[14] = THP-1 cell cytotoxicity, dose response, cytotoxicity control for non-replicating M. tuberculosis project (AID 489025); format: functional
cells = format: functional

Voltage-dependent T-type calcium channel subunit alpha-1H, sequence (O95180 whole entry, the tested form may be a part): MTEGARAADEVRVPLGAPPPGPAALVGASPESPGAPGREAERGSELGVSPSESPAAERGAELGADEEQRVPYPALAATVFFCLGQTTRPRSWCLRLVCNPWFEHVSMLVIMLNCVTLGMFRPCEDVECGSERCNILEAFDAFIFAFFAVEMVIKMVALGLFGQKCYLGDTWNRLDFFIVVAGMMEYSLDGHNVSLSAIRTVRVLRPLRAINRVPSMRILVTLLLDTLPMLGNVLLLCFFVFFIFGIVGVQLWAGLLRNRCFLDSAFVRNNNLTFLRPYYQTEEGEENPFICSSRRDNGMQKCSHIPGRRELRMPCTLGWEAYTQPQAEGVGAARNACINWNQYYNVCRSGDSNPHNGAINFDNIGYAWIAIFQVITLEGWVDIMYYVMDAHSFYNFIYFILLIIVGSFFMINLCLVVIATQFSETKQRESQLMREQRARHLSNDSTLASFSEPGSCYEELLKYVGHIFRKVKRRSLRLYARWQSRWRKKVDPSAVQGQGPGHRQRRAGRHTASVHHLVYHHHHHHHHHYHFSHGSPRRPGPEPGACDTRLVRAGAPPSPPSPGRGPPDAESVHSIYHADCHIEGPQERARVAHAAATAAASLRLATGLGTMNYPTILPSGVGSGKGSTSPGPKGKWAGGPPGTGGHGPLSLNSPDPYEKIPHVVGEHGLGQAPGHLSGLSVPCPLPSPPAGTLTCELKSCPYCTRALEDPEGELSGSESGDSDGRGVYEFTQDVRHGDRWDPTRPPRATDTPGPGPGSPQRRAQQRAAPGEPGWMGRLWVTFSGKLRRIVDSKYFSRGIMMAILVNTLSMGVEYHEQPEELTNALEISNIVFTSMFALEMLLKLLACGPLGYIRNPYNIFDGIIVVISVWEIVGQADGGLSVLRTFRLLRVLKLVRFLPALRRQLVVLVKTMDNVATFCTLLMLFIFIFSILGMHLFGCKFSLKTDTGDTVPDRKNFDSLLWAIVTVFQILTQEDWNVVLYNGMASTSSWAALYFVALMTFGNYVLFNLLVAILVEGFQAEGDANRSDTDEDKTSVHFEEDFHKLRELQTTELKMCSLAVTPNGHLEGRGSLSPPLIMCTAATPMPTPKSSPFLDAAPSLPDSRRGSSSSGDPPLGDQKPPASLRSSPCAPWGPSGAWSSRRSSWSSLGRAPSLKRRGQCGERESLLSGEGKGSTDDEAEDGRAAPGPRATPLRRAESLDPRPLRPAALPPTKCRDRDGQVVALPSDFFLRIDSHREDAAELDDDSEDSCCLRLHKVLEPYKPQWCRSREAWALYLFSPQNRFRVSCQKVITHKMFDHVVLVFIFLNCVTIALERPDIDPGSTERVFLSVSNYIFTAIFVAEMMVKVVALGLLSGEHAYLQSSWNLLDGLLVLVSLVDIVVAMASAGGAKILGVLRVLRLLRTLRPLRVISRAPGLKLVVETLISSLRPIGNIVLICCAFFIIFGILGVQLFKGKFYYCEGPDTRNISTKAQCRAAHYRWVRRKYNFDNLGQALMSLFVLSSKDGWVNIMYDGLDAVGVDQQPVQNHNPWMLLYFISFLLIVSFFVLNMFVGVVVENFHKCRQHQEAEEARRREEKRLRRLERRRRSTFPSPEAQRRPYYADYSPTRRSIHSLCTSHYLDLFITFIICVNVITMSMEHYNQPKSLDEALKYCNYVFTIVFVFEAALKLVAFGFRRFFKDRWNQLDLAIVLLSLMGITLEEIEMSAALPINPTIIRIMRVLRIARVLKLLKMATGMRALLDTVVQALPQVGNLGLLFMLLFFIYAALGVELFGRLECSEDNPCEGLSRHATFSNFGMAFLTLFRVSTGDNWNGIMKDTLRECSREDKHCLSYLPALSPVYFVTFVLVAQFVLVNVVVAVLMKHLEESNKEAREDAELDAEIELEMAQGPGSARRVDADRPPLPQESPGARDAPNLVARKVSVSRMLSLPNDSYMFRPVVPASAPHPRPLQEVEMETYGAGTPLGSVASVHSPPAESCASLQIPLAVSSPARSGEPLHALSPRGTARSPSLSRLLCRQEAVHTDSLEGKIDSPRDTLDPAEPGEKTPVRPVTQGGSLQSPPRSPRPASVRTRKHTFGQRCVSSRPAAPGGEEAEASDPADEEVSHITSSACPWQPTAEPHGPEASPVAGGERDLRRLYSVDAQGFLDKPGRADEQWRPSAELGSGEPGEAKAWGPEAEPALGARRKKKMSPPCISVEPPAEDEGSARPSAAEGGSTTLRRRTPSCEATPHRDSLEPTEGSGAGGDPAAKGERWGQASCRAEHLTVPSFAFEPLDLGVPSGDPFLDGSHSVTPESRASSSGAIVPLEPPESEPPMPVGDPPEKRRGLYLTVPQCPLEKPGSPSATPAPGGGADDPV
Cytochrome P450 3A4, sequence (P08684 whole entry): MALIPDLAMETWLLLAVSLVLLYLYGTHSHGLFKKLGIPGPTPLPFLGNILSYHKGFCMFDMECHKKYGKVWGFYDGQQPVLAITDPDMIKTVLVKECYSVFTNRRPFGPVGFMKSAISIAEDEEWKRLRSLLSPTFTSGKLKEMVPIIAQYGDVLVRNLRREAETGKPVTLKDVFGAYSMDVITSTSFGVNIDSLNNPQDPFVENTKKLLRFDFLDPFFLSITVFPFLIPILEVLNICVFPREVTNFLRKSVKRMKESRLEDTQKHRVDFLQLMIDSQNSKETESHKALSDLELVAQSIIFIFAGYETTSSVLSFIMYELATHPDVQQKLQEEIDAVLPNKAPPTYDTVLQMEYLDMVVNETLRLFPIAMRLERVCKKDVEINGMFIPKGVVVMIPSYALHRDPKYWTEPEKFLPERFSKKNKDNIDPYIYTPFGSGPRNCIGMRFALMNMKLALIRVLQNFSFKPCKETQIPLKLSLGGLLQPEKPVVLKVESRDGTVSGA
Glyceraldehyde-3-phosphate dehydrogenase, sequence (P04406 whole entry): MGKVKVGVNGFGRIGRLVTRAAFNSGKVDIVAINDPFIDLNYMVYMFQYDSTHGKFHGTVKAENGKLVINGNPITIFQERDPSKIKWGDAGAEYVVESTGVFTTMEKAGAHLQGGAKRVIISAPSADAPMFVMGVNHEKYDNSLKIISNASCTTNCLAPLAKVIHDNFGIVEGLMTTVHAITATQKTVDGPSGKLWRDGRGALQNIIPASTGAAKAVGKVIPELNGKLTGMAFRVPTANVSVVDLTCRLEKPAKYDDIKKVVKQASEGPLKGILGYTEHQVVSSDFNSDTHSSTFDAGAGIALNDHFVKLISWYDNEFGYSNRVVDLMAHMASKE

Cc1cccc(N2CCN(C(=O)CCCSc3nc4ccccc4[nH]3)CC2)c1C
AC50 [1]: 46.1 µM (active) | EC50 [2]: 5.23 µM (active) | AC50 [3]: 12.3 µM (active) | AC50 [4]: 50.8 µM (active)

CN(C(=O)C(C)(C)C)c1ccc(OCC(=O)N2CCc3ccccc3C2)cc1
IC50 (HEK293 [5]): 12.9 µM (active) | IC50 (HEK293 [6]): 18.1 µM (inactive) | EC50 (HEK293 [7]): 4.6 µM (active) | IC50 (HEK293 [8]): > 20 µM (inactive)

COc1ccc(C[C@H]2CN3C(=NC[C@@H]3Cc3ccc(O)cc3)N2C[C@H](C)NC(=O)c2ccc(C)c(Br)c2)cc1
IC50 [9]: > 20 µM (inactive)

COc1cc(Br)c(C2C(C#N)=C(N)Oc3[nH]nc(-c4cccnc4)c32)cc1OC (stereo unspecified)
AC50 [10]: 35 µM (active) | EC50 (Protein RecA): 8.6 µM (active) | IC50 (Aminopeptidase N): 44.6 µM (active)

COc1ccc(S(=O)(=O)Nc2cccnc2)cc1OC
IC50 [11]: > 100 µM (inactive) | IC50 [12]: > 100 µM (not active)

CCCN1[C@@H]2C[C@@H](O)CC[C@@H]2C[C@H]1C(=O)OC
AC50 (Cytochrome P450 3A4): 25.1 µM (inconclusive)

COc1ccc(-c2csc(NC(=O)C3=NN(c4ccccc4)C(=O)CC3)n2)cc1
IC50 (HEK293 [5]): 5.51 µM (active) | IC50 (HEK293 [6]): 5.67 µM (inactive) | EC50 (HEK293 [7]): 15.7 µM (active) | IC50 (HEK293 [8]): 17.5 µM (active)

C=CCc1ccc(OCC(O)COc2ccc(CC=C)cc2OC)c(OC)c1
EC50 [2]: 6.12 µM (active)

COc1cc(/C=C/C(=O)c2cccs2)cc(OC)c1OC
AC50 (Cytochrome P450 3A4): 3.16 µM (inconclusive)

c1ccc(-c2cc3c(nc2-c2ccccc2)CCNC3)cc1
AC50 (Cytochrome P450 3A4): 5.01 µM (inconclusive)

Cc1ccc(-n2ncc(C(=O)NCc3ccc4c(c3)OCO4)c2NC(=O)c2ccco2)cc1C
EC50 [2]: 1.89 µM (active)

COc1ccc(-c2csc(NC(C)c3nc4cc(C(=O)NCCCO)ccc4n3Cc3ccc(C)cc3)n2)cc1 (stereo unspecified)
IC50 [9]: > 20 µM (inactive)

CC(/C=C/c1ccco1)=N\NC(=O)c1cccc(Cl)c1
CC50 [13]: > 20 µM (active) | CC50 [14]: > 40 µM (active) | IC50 (cells): 6.09 µM (active)

Clc1ccc(/C=N/Nc2nnn[nH]2)cc1
IC50 (Aminopeptidase N): 92.8 µM (active)

Cc1ccc(-c2cc(C(=O)O)[nH]n2)cc1
IC50 [11]: 8.71 µM (active) | IC50 [12]: > 100 µM (not active)

COc1nc(N=C(N)N)nc2c(C)cccc12
IC50 (Aminopeptidase N): 22.2 µM (active)
